{"source": "ChEMBL document CHEMBL1201862", "about": "“PubChem BioAssay data set” (2004)", "key": {"[1]": {"target": "T1, Replicative DNA helicase DnaB (Mycobacterium tuberculosis, UniProt P9WMR3)", "T1 sequence (P9WMR3 whole entry)": "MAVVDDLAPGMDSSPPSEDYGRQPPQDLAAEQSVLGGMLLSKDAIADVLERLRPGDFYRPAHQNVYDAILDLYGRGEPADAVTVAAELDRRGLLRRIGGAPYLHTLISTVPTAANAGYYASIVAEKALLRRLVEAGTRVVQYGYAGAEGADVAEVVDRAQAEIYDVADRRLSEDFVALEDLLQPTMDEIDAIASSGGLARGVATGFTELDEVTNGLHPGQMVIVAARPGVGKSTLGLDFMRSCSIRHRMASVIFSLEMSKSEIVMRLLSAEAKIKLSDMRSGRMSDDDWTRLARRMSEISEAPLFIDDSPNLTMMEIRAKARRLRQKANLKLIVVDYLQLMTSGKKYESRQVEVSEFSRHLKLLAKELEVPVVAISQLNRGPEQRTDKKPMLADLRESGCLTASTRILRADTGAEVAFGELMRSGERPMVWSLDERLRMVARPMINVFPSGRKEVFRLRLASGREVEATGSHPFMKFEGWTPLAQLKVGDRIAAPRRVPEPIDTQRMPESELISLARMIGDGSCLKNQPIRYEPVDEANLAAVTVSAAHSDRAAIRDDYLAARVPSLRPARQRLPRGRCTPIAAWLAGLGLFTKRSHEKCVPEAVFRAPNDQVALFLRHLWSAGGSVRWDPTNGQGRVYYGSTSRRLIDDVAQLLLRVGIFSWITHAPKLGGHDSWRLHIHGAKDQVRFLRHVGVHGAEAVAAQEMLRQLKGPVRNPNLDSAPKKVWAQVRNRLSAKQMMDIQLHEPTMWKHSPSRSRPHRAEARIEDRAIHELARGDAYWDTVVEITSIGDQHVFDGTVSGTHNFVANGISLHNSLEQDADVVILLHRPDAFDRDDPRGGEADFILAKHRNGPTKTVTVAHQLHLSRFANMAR", "test": "DnaB intein splicing inhibitors, dose response, biochemical, cell-free fluorescence (AID 449749)", "assay_type": "functional"}, "Protein RecA": {"target": "T2, Protein RecA (Mycobacterium tuberculosis, UniProt P9WHJ3)", "T2 sequence (P9WHJ3 whole entry)": "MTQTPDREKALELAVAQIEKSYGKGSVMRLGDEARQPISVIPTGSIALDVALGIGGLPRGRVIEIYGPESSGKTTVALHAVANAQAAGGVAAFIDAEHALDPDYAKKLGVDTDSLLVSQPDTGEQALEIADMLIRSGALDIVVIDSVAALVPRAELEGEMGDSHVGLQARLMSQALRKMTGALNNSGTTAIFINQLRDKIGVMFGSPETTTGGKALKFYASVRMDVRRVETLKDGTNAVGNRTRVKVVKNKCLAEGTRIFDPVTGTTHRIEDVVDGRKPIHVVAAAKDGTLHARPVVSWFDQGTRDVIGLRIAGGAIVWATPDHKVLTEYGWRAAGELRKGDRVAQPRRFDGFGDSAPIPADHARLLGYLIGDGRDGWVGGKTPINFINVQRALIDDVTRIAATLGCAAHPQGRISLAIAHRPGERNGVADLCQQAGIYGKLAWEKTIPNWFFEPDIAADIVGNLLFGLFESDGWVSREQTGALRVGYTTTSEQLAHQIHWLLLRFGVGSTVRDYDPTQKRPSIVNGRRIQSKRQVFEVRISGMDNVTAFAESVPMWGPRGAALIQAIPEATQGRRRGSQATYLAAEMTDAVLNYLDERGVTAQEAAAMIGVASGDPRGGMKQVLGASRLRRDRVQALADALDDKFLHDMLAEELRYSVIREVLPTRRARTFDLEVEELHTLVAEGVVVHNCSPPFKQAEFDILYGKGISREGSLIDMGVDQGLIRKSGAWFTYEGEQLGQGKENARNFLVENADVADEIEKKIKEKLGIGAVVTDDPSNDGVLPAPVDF", "test": "Fluorescence Cell-Free Homogeneous Dose Retest to Identify Inhibitors of RecA-Intein Splicing Activity. [Related pubchem assays (depositor defined):AID2097, AID2223, AID489010, AID492950]", "assay_type": "functional"}, "Genome polyprotein": {"target": "Genome polyprotein (dengue virus type 2, UniProt P29990)", "sequence (P29990 2492-3391 limits assumed)": "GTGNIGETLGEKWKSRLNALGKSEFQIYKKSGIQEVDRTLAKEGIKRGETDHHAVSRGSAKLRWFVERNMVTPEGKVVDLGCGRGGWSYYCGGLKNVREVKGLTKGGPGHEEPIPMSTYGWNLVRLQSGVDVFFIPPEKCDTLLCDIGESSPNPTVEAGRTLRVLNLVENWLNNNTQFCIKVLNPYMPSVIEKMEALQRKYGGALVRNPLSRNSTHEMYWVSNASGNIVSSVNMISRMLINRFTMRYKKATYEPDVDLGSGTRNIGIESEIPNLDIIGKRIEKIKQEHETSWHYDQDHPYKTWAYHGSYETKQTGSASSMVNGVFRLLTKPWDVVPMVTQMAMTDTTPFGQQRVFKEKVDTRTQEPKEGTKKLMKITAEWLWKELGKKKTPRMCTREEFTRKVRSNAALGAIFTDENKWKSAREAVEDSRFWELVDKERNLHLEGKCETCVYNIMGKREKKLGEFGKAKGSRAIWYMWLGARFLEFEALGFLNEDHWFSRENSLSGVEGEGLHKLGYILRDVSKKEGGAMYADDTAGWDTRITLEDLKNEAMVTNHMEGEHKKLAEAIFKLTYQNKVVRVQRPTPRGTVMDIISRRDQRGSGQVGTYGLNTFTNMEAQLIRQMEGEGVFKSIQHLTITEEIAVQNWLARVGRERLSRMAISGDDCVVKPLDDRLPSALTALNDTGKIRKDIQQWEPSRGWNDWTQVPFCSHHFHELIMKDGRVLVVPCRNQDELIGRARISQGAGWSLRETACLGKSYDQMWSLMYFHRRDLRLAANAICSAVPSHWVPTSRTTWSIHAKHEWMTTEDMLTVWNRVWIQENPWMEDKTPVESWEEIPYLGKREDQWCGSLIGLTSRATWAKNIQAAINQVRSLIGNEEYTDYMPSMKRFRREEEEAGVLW", "test": "Dengue-2 NS5 methyltransferase inhibitors, primary screen, biochemical, confirmation dose response (AID 588689)", "assay_type": "functional"}, "Vero": {"test_system": "Vero", "test": "cells", "assay_type": "functional, cell-based", "conditions": "Chlorocebus sabaeus"}, "cells": {"test": "cells", "assay_type": "functional"}, "Cytochrome P450 2C19": {"target": "Cytochrome P450 2C19 (Homo sapiens, UniProt P33261)", "sequence (P33261 whole entry)": "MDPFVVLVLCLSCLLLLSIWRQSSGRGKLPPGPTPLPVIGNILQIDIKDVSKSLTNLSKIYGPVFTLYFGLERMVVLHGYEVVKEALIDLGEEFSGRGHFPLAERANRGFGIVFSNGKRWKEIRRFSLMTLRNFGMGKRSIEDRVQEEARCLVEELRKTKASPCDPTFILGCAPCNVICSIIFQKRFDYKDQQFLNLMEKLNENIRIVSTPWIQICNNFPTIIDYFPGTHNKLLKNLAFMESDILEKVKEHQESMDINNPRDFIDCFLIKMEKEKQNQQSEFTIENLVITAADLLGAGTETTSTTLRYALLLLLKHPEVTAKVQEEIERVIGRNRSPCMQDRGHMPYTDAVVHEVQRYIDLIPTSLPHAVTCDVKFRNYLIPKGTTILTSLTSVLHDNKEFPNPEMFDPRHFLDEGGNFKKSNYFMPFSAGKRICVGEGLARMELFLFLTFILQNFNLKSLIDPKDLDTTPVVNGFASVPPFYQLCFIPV", "test": "Cytochrome panel assay with activity outcomes. Panel member name: p450-cyp2c19 Compounds with AC50 equal or less than 10 uM are considered active", "assay_type": "functional", "conditions": "read-out: AC50"}, "Cytochrome P450 2C9": {"target": "Cytochrome P450 2C9 (Homo sapiens, UniProt P11712)", "sequence (P11712 whole entry)": "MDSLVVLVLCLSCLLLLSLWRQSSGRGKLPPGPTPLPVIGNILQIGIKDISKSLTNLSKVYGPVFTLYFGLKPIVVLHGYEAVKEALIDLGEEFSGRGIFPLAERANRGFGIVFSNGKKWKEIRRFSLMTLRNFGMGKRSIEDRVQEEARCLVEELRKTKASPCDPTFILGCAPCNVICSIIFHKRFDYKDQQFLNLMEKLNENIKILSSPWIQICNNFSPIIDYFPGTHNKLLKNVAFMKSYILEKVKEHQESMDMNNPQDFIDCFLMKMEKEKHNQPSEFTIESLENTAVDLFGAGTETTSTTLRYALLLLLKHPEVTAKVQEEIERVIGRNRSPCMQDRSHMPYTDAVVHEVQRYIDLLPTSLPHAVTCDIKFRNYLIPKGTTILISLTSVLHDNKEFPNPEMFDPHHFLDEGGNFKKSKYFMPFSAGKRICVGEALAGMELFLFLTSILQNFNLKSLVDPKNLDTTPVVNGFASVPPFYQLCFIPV"}, "Coagulation factor XII": {"target": "T3, Coagulation factor XII (Homo sapiens, UniProt P00748)", "T3 sequence (P00748 whole entry)": "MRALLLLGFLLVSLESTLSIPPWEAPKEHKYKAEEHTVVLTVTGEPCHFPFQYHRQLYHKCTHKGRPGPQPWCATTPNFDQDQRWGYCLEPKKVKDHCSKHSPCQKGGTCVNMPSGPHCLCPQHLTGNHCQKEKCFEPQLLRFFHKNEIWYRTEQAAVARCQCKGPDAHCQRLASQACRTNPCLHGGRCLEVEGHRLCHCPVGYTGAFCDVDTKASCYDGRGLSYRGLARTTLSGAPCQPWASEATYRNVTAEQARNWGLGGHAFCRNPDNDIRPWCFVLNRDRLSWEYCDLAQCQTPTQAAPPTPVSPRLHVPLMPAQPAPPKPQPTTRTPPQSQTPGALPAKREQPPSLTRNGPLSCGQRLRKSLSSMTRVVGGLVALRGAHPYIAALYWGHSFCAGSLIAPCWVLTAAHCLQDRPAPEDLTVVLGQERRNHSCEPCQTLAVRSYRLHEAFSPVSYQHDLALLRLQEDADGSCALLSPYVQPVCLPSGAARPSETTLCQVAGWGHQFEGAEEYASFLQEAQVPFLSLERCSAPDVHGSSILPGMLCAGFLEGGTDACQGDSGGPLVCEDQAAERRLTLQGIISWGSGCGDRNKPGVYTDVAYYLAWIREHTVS", "assay_type": "functional"}, "[2]": {"target": "T4, Microphthalmia-associated transcription factor (Homo sapiens, UniProt O75030)", "T4 sequence (O75030 whole entry)": "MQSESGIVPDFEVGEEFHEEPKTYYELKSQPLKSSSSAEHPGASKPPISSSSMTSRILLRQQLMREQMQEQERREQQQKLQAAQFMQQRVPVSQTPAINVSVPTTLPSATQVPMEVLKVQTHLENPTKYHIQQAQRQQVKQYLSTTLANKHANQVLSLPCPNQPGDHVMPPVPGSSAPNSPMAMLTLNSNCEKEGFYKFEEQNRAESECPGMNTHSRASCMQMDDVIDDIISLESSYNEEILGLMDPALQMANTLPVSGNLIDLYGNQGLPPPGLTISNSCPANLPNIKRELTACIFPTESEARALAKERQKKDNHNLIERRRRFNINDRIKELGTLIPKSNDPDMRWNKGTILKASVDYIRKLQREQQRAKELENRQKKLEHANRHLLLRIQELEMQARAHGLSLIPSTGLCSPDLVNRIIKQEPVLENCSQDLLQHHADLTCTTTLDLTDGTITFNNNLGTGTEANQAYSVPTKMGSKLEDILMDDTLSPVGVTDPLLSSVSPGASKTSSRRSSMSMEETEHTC", "test": "TRPM1 promoter luciferase signal decrease, dose response, MITF inhibitor project, cell-based, SK-MEL-5, cherry-picked, set 3 (AID 493073)", "assay_type": "functional"}, "Fatty acid synthase": {"target": "Fatty acid synthase (Homo sapiens, UniProt P49327)", "sequence (P49327 whole entry, the tested form may be a part)": "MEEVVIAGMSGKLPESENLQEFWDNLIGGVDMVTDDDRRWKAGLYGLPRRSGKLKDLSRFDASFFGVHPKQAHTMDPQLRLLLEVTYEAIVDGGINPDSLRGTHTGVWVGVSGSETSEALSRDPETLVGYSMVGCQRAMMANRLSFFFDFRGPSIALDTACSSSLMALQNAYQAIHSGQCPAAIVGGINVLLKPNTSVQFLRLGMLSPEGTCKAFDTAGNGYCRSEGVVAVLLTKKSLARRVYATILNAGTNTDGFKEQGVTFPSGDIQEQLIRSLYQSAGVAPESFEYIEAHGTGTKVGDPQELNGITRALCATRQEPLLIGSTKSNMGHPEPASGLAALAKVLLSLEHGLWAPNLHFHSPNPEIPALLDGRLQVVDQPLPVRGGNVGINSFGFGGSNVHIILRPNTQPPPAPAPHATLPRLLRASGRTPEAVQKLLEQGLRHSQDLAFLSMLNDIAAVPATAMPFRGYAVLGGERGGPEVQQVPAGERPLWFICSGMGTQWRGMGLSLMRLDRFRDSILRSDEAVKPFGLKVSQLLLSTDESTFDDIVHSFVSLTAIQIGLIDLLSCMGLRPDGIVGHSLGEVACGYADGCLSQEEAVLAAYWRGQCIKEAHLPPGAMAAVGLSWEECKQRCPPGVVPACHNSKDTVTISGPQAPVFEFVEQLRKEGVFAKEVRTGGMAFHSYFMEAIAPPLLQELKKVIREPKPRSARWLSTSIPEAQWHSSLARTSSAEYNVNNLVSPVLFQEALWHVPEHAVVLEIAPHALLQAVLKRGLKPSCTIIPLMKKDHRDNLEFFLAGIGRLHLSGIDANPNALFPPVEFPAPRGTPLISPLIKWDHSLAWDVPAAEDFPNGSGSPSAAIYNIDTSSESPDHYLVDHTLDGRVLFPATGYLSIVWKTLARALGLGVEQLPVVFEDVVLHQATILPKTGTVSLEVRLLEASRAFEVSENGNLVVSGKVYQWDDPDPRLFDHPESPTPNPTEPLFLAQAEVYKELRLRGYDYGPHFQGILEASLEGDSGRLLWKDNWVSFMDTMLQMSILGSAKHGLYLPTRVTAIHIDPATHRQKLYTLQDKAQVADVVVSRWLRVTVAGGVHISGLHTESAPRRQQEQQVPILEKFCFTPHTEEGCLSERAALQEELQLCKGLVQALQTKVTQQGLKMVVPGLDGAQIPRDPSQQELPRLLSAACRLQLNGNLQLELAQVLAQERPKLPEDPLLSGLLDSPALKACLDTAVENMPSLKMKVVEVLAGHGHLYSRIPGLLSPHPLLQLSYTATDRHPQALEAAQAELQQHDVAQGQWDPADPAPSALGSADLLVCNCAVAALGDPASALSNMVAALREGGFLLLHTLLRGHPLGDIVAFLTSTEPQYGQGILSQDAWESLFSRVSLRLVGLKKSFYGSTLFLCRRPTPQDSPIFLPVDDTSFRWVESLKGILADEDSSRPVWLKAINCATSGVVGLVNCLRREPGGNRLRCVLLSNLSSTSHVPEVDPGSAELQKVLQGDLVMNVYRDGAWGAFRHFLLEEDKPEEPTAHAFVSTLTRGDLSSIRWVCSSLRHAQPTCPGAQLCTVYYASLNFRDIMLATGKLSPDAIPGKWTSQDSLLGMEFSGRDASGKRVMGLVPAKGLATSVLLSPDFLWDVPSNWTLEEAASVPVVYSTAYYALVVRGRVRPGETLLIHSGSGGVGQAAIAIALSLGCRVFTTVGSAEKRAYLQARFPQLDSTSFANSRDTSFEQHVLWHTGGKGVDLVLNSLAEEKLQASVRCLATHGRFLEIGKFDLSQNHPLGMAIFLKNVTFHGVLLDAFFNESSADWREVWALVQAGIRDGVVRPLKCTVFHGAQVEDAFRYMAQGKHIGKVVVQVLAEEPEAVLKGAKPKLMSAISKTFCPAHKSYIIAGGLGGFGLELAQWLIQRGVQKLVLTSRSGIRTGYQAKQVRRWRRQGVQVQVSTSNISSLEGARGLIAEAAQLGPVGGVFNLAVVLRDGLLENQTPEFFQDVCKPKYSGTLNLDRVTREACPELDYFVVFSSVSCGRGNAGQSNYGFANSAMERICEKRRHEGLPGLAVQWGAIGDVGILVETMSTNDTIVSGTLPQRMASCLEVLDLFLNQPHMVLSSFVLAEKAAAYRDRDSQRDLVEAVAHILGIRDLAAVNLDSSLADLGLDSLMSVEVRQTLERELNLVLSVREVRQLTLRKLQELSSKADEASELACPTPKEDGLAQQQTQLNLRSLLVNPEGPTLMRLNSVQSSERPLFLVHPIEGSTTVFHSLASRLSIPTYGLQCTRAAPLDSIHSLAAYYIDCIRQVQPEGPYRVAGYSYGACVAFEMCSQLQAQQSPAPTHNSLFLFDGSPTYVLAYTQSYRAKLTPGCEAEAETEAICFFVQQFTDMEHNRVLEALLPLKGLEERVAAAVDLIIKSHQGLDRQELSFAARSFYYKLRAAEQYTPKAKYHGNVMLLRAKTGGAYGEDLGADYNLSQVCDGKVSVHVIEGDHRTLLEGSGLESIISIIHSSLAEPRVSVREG", "test": "FAS thioesterase domain inhibitors, dose response, biochemical, kinetic fluorescence intensity (AID 624326);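 also: rate of fluorescence rise from hydrolysis of a fluorogenic O-methyl fluorescein ester substrate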", "assay_type": "functional"}, "[3]": {"test": "inhibitors of HIV Env-driven cell fusion, dose response, cherry-pick (AID 652057)", "assay_type": "functional, cell-based"}, "[4]": {"test": "ZM109 Env clade C HIV-1 fusion inhibitors, dose response, HeLa effector, CEM target cells, luciferase, cherry-pick (AID 652058)", "assay_type": "functional, cell-based"}, "[5]": {"test": "off-target signal loss in HeLa-CEM21 co-culture – HeLa F-luc CTL cells, cherry-picked, counter-screen for HIV-1 Env fusion inhibitor project, dose response (AID 652040);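 also: potency for signal decrease marking cytotoxic or nonspecific inhibition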", "assay_type": "functional, cell-based"}, "[6]": {"test": "inhibitors of clade B AD8 Env fusion, dose response, cell-based, cherry-pick (AID 652062);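 also: potency is for inhibitors of fusion seen as a drop in luminescence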", "assay_type": "functional"}}, "note": "Calls of active or inactive are those of the source."}
{"smiles": "COc1ccc(OC)c(N2C(=O)C(Cl)=C(N3CCOCC3)C2=O)c1", "values": [{"measurement": "AC50", "setting": "[1]", "value": "145 µM (active)"}, {"measurement": "EC50", "setting": "Protein RecA", "value": "26.3 µM (active)"}, {"measurement": "IC50", "setting": "Genome polyprotein", "value": "18.1 µM (active)"}]}
{"smiles": "OC1(c2cccs2)C[N+](c2ccc(Br)cc2)=C2SCCCN21", "note": "(stereo not drawn)", "values": [{"measurement": "IC50", "setting": "Vero", "value": "14.9 µM (active)"}]}
{"smiles": "CCC(C)n1nnc2c(=O)oc3ccccc3c21", "note": "(stereo not drawn)", "values": [{"measurement": "IC50", "setting": "cells", "value": "5.77 µM (active)"}, {"measurement": "AC50", "setting": "Cytochrome P450 2C19", "value": "8.91 µM (inconclusive)"}, {"measurement": "AC50", "setting": "Cytochrome P450 2C9", "value": "inconclusive"}]}
{"smiles": "CCCn1cc(CN2CCCC(C(=O)c3cccc(OC)c3)C2)c(C)n1", "note": "(stereo not drawn)", "values": [{"measurement": "IC50", "setting": "Coagulation factor XII", "value": "> 50 µM (inactive)"}]}
{"smiles": "Cc1cccc(-n2cccc2)c1C#N", "values": [{"measurement": "AC50", "setting": "Cytochrome P450 2C9", "value": "inconclusive"}]}
{"smiles": "C=CCSC[C@@H]1Nc2cc(Cl)c(S(N)(=O)=O)cc2S(=O)(=O)N1", "values": [{"measurement": "AC50", "setting": "Cytochrome P450 2C9", "value": "inconclusive"}]}
{"smiles": "O=C(CCl)N(Cc1cc(O)nc2ccccc12)c1ccccc1", "values": [{"measurement": "AC50", "setting": "[2]", "value": "5.42 µM (active)"}, {"measurement": "AC50", "setting": "[1]", "value": "5.06 µM (active)"}, {"measurement": "EC50", "setting": "Protein RecA", "value": "2.38 µM (active)"}]}
{"smiles": "NC(=NOC(=O)CCCc1ccccc1)c1cccc([N+](=O)[O-])c1", "values": [{"measurement": "IC50", "setting": "Fatty acid synthase", "value": "11.6 µM (active)"}]}
{"smiles": "CC(C)OC(=O)c1cccc(NC(=O)CSc2nnc(N)s2)c1", "values": [{"measurement": "IC50", "setting": "Coagulation factor XII", "value": "> 50 µM (inactive)"}]}
{"smiles": "O=[N+]([O-])c1cccc(/C=C/c2nc(O)nc(O)c2[N+](=O)[O-])c1", "values": [{"measurement": "IC50", "setting": "Genome polyprotein", "value": "72.8 µM (active)"}]}
{"smiles": "Cc1nn(CC(=O)N2CCc3ccccc3C2)c(C)c1[N+](=O)[O-]", "values": [{"measurement": "IC50", "setting": "Coagulation factor XII", "value": "> 50 µM (inactive)"}]}
{"smiles": "CCOC(=O)c1c(CSc2ccsc2)n(C)c2cc(Br)c(O)c(CN(C)C)c12", "values": [{"measurement": "AC50", "setting": "[3]", "value": "1.3 µM (active)"}, {"measurement": "AC50", "setting": "[4]", "value": "2.34 µM (active)"}, {"measurement": "AC50", "setting": "[5]", "value": "2.45 µM (active)"}, {"measurement": "AC50", "setting": "[6]", "value": "4.04 µM (active)"}]}
{"smiles": "CCN(CC)c1ccc(/C=N/NS(=O)(=O)c2cccc([N+](=O)[O-])c2)cc1", "values": [{"measurement": "IC50", "setting": "Coagulation factor XII", "value": "> 50 µM (inactive)"}]}
{"smiles": "CCC(C)[C@H](NC(=O)Nc1ccc(C(C)=O)cc1)C(=O)OC", "note": "(stereo partly drawn)", "values": [{"measurement": "IC50", "setting": "Coagulation factor XII", "value": "> 50 µM (inactive)"}]}
